Earlier results, collected in US4241056A, “Penicillins and salts thereof” (Boehringer Ingelheim GmbH, priority 1978, dated 1980).
Counter-ions that a name gives are not always drawn.

Experiments:
various kinds of E. coli = conditions: cited from earlier work
Klebsiella = conditions: cited from earlier work

For `CC1(C)S[C@@H]2[C@H](NC(=O)[C@H](NC(=O)N3CCNC3=O)c3ccccc3)C(=O)N2[C@H]1C(=O)O` [Azlocillin, 6-{D-α-[(2-oxo-imidazolidine-1-yl)carbonylamino]-4-phenyl-acetamino}-pencillanic acid sodium salt], the “activity against various kinds of E. coli” value (various kinds of E. coli) is given as “only a moderate activity” and the “activity against Klebsiella” value (Klebsiella) is given as “only a moderate activity”.
